# “Also recorded” adds a separate entry of the source.
# Experiments:
# FGFR3 = FGFR3 (Homo sapiens, UniProt P22607); experiment: Kinase substrate phosphorylation (FIG. 9C); assay type: biochemical; conditions: 10 or 50 μM
# Method: (§1) Non-Jak3 mediated NfκB activation by TNF-α was not affected within the same treatment set (lower panel). […] Prolactin [PRL] (+) or (−) indicates whether the cells were stimulated with prolactin with Jak2 activation. Phosphotyrosine Western blots detect Jak2-Stat5 activation but no inhibition by 649641P (NC1153). […] 649641P (NC1153) was tested at 10 (open bars) or 50 μM (filled bars) to block growth factor tyrosine kinases (FGFR3 and PDGFRα), Src family tyrosine kinases (Src, Fyn, Lck, Yes, Zap70) or serine threonine kinases (PKC and PKA) phosphorylation of a substrate. The activity of the control is plotted as a dashed line.
# (§2) In FIG. 9A, it can be seen that NC1153 inhibits Jak3 driven transcription factor-Stat5a/b in PHA activated T-cells treated with increasing concentrations of NC1153 in a dose dependent manner as measured via EMSA analysis (upper panel). The lane identified as “cold compete” contains unlabeled probe. However, non-Jak3 mediated NfκB activation (lower panel) by TNF-α was not affected within the same treatment set. […] Rat Nb2 cells were treated with increasing concentration of NC1153 and then stimulated with prolactin. Phosphotyrosine Western blots detect activation but no inhibition by NC1153. […] Activity of the control is plotted as a dashed line.
# Lck = Lck (Homo sapiens, UniProt P06239); experiment: Kinase substrate phosphorylation (FIG. 9C); assay type: biochemical; conditions: 10 or 50 μM
# Method: as §1, §2
# PKA = experiment: Kinase substrate phosphorylation (FIG. 9C); assay type: biochemical; conditions: 10 or 50 μM
# Method: as §1, §2
# PKC = experiment: Kinase substrate phosphorylation (FIG. 9C); assay type: biochemical; conditions: 10 or 50 μM
# Method: as §1, §2
# Src = Src (Homo sapiens, UniProt P12931); experiment: Kinase substrate phosphorylation (FIG. 9C); assay type: biochemical; conditions: 10 or 50 μM
# Method: as §1, §2
# Yes = Yes (Homo sapiens, UniProt P07947); experiment: Kinase substrate phosphorylation (FIG. 9C); assay type: biochemical; conditions: 10 or 50 μM
# Method: as §1, §2
# Zap70 = target: T1, Zap70 (Homo sapiens, UniProt P43403); experiment: Kinase substrate phosphorylation (FIG. 9C); assay type: biochemical; conditions: 10 or 50 μM
# T1 sequence (P43403 1-619): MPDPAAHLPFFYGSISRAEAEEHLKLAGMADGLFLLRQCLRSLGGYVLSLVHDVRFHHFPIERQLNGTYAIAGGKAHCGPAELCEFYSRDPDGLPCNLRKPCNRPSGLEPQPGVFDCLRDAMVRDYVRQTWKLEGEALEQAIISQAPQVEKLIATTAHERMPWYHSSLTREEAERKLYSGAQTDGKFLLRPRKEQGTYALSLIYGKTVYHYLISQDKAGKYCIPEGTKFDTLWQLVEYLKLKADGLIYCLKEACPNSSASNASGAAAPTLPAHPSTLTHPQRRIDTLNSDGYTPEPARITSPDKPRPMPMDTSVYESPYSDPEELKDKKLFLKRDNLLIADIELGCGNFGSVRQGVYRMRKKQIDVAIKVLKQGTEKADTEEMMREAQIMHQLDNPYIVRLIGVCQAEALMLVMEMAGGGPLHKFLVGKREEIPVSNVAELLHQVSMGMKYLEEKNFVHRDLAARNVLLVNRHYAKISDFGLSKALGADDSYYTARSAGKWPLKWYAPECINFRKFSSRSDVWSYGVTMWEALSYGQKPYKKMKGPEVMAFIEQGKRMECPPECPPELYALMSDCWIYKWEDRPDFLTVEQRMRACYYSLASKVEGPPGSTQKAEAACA
# Method: as §1, §2
# [1] = test system: IL2R-α, -β, and -γ chains; experiment: FACS analysis of IL2 receptor expression on PHA-activated T-cell blasts; assay type: cell-based, human; conditions: 50 μM overnight
# Method: FIG. 7A is a bar graph showing that proliferation of PHA-activated human T cells was blocked by the indicated NCI agents following stimulation with IL-2. FIG. 7B is a FACS analysis of PHA-activated T-cell blasts that were treated without (heavy line) or with 50 μM NC1153 (light line) overnight and stained for IL2R-α, -β, and -γchains. FIG. 7C is a graph of cell growth inhibition over a range of NC1153 concentration in non-Jak3 expressing Jurkat cells (black diamonds) and in Jak3 containing PHA activated T-cells (open boxes). FIG. 7D is a graph of cell growth inhibition versus NC1153 concentration in T-cells stimulated by cytokines that utilize Jak3 and the common gamma chain.
# Also shown (FIG. 7B) is a graph showing the FACS analysis of PHA-activated T-cell blasts that were treated without (heavy line) or with 50 μM NC1153 (light line) overnight and stained for IL2R-α, -β, and -γ chains. The dashed lines indicate cells pretreated with NC1153. […] Data are normalized as percent of vehicle control. NC1153 inhibits growth of cells by cytokines that utilize Jak3 and the common gamma chain (FIG. 7D). […] Thus, the inhibitory effects of NC1153 are not limited to cells stimulated only by IL-2. Instead, the entire family of cytokines which use Jak3 are blocked by NC1153.
# Chain of Lck (P06239 whole entry, species assumed): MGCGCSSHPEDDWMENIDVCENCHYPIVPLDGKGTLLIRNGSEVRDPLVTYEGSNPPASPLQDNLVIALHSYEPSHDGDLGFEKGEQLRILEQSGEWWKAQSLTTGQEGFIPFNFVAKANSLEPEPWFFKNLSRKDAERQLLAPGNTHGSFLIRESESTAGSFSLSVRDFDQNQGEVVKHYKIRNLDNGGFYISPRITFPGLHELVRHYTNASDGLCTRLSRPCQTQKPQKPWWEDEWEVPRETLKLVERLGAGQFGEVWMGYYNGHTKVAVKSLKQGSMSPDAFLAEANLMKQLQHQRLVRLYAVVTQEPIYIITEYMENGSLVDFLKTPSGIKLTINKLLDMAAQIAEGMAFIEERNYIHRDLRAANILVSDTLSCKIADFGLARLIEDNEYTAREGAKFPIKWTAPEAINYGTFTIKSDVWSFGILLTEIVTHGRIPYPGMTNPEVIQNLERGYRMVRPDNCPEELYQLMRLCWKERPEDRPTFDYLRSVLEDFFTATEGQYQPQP
# Chain of Yes (P07947 whole entry, species assumed): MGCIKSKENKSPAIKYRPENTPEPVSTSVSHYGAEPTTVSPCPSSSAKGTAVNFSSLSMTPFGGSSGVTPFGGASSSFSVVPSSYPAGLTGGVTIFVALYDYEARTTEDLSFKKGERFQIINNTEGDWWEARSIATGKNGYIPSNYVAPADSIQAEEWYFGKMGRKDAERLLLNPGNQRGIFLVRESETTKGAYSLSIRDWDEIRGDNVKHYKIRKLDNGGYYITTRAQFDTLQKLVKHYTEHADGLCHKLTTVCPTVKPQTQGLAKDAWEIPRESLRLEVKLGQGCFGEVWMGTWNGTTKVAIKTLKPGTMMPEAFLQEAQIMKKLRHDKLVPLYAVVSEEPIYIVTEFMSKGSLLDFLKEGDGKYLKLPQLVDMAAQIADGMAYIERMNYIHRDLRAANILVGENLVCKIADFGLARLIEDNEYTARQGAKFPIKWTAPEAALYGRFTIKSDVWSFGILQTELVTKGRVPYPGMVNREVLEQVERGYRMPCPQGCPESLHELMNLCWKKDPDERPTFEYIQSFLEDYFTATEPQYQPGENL
# Chain of Src (P12931 whole entry, species assumed): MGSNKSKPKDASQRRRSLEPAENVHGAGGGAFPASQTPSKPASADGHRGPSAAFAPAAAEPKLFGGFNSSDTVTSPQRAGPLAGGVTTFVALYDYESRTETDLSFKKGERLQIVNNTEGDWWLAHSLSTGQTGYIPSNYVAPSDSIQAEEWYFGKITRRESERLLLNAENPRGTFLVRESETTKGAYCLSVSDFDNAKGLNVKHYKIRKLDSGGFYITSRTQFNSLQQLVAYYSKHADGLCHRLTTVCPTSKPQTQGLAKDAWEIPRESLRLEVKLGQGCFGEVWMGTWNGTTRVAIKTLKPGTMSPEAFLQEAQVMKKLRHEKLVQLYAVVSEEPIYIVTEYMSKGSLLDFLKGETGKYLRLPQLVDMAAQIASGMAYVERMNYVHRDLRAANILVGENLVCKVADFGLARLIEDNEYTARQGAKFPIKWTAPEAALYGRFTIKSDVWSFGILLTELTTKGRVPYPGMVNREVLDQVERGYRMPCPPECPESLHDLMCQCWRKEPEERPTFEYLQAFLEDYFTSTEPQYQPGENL
# Chain of FGFR3 (P22607 23-806, species assumed): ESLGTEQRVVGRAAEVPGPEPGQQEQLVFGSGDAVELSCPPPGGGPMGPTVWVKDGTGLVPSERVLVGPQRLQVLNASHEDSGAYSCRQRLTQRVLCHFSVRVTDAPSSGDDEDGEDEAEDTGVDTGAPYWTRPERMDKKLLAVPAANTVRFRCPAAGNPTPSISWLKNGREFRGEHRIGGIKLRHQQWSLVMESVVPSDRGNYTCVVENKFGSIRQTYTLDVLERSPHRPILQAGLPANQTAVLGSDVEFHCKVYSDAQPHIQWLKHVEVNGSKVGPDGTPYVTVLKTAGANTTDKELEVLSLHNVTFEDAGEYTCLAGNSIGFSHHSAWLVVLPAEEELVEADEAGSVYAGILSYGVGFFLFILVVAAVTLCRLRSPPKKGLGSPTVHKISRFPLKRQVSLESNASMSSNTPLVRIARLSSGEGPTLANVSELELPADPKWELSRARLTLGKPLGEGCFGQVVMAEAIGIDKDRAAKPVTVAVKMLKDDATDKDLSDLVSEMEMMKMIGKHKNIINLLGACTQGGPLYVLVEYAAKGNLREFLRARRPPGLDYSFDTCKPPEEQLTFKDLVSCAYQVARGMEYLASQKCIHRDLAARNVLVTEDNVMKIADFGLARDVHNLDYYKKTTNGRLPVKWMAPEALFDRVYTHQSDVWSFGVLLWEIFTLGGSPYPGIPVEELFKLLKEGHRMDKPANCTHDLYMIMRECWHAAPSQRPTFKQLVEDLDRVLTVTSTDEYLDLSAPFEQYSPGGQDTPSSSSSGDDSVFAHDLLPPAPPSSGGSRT
smiles,measurement,setting,value
CN(C)CC1CCCCCCCCCC(CN(C)C)C1=O (mixture of isomers) [649641P (NC1153)],FGFR3 phosphorylation of a substrate,FGFR3,fails to affect the activity
same,FGFR3 phosphorylation of a substrate,FGFR3; listed as NC1153,fails to affect activity
same,Lck phosphorylation of a substrate,Lck,fails to affect the activity
same,Lck phosphorylation of a substrate,Lck; listed as NC1153,fails to affect activity
same,PKA phosphorylation of a substrate,PKA,fails to affect the activity
same,PKA phosphorylation of a substrate,PKA; listed as NC1153,fails to affect activity
same,PKC phosphorylation of a substrate,PKC,fails to affect the activity
same,PKC phosphorylation of a substrate,PKC; listed as NC1153,fails to affect activity
same,Src phosphorylation of a substrate,Src,fails to affect the activity
same,Src phosphorylation of a substrate,Src; listed as NC1153,fails to affect activity
same,Yes phosphorylation of a substrate,Yes,fails to affect the activity
same,Yes phosphorylation of a substrate,Yes; listed as NC1153,fails to affect activity
same,Zap70 phosphorylation of a substrate,Zap70,fails to affect the activity
same,Zap70 phosphorylation of a substrate,Zap70; listed as NC1153,fails to affect activity
same,IL2 receptor expression,[1],failed to affect IL2 receptor expression; also recorded: unaffected
